# Results taken from patent US20060034882A1, “Yarns and fabrics having long-lasting mosquito repellent or antibacterial effect and their preparation” (FORMOSA TAFFETA CO., LTD., priority 2004, published 2006).
# Legend:
# [1] = amount of compound contained in the fabric before and after laundering (Soxhlet extraction, HPLC); format: physicochemical; details: treated fabric of the Example; for Amounts, Laundering Number L0 (amount of the compound in the fabric before laundering): methylene dichloride extraction; for Amounts, Laundering Number L25 (amount of the compound in the fabric after 25 launderings): after 25 launderings (JIS L02173-103), methylene dichloride extraction 4 hours
# Description: The fabric is subjected to a test for determining the amount of Permethrin and octylisothiazolone contained therein.
# The compounds contained in the fabric are extracted, and determined by High Performance Liquid Chromatography (HPLC).
# The fabric is laundered 25 times (JIS L02173-103). Then, the fabric is extracted for 4 hours with methylene dichloride in a Soxhlet extractor. The extract thus obtained is applied into HPLC for determining the amount of Permethrin or octylisothiazolone.
# The amount of the compound contained in the fabric is determined by extraction and HPLC. L0 represents the amount of the compound before laundering. L25 represents the amount of the compound after 25 launderings.
# rats = details: cited from earlier work
# rabbits = details: cited from earlier work
compound,measurement,setting,value
CC1(C)C(C=C(Cl)Cl)C1C(=O)OCc1cccc(Oc2ccccc2)c1 (centres unmarked) [Permethrin],"Amounts, Laundering Number L0 (amount of the compound in the fabric before laundering)",[1],536 ppm
same,LD50 for acute oral toxicity in rats,rats,up to 470 mg/kg
same,LD50 for acute dermal toxicity in rabbits,rabbits,greater than 2500 mg/kg
"CCCCCCCCn1sccc1=O [Octylisothiazolone, octylisothiazolone]","Amounts, Laundering Number L25 (amount of the compound in the fabric after 25 launderings)",[1],10 ppm
same,"Amounts, Laundering Number L25 (amount of the compound in the fabric after 25 launderings)",[1]; listed as octylisothiazolone,greater than 8 ppm
same,"Amounts, Laundering Number L0 (amount of the compound in the fabric before laundering)",[1],80 ppm
same,LD50 for acute oral toxicity in rats,rats,up to 270 mg/kg
same,LD50 for acute dermal toxicity in rabbits,rabbits,up to 311 mg/kg
